# Laboratory results published in patent publication US20230287003A1, “BCL6 INHIBITORS” (Cancer Research Technology Limited, priority 2018, published 2023).
# pIC50: −log10 of the molar value.
# Target: human BCL6 BTB domain (Trx-6×His-BCL6) / BCOR-AF633 peptide (Homo sapiens (Human), UniProt P41182)
# Experiment: HTRF assay
# Assay type: binding
# Settings: 1 nM Trx-6×His-BCL6, 300 nM BCOR-AF633 peptide, 2 hours incubation
row,HTRF avg pIC50 (1 nM),Molecule
1,6.47,"C[C@H]1COC(=O)c2c(c3cc(Nc4nc(N5CC6CCC(C6)C5)ncc4Cl)ccc3n(C)c2=O)N1 [Example 8h, (2S)-10-((2-(3-azabicyclo[3.2.1]octan-3-yl)-5-chloropyrimidin-4-yl)amino)-2,7-dimethyl-2,3-dihydro-[1,4]oxazepino[6,5-c]quinoline-5,6(1H,7H)-dione]"
2,6.19,"C[C@@H]1CN(c2ncc(Cl)c(Nc3ccc4c(c3)c3c(c(=O)n4C)C(=O)OC[C@H](C4CC4)N3)n2)C[C@H](C)O1 [Example 8n, (S)-10-((5-chloro-2-((2S,6R)-2,6-dimethylmorpholino)pyrimidin-4-yl)amino)-2-cyclopropyl-7-methyl-2,3-dihydro-[1,4]oxazepino[6,5-c]quinoline-5,6(1H,7H)-dione]"
3,6.93,"C[C@@H]1CN(c2ncc(Cl)c(Nc3ccc4c(c3)c3c(c(=O)n4C)OCC[C@H](C4CC4)N3)n2)C[C@H](C)[C@H]1F [Example 12e, (R)-10-((5-chloro-2-((3S,4R,5R)-4-fluoro-3,5-dimethylpiperidin-1-yl)pyrimidin-4-yl)amino)-2-cyclopropyl-7-methyl-1,2,3,4-tetrahydro-[1,4]oxazepino[2,3-c]quinolin-6(7H)-one]"
4,6.98,"(R)-10-((5-chloro-2-((R)-4,4-difluoro-3- methylpiperidin-1-yl)pyrimidin-4-yl)amino)-2-cyclopropyl-7- methyl-1,2,3,4-tetrahydro-[1,4]oxazepino[2,3-c]quinolin- 6(7H)-one or (R)-10-((5-chloro-2-((S)-4,4-difluoro-3- methylpiperidin-1-yl)pyrimidin-4-yl)amino)-2-cyclopropyl- 7-methyl-1,2,3,4-tetrahydro-[1,4]oxazepino[2,3-c]quinolin- 6(7H)-one [Example 14b]"
5,8.34,"(S)-10-((5-chloro-2-((R)-4,4-difluoro-3- (hydroxymethyl)piperidin-1-yl)pyrimidin-4-yl)amino)-2-cyclopropyl- 3,3-difluoro-7-methyl-1,2,3,4-tetrahydro-[1,4]oxazepino[2,3-c]quinolin- 6(7H)-one or (S)-10-((5-chloro-2-((S)-4,4-difluoro-3- (hydroxymethyl)piperidin-1-yl)pyrimidin-4-yl)amino)-2-cyclopropyl- 3,3-difluoro-7-methyl-1,2,3,4-tetrahydro-[1,4]oxazepino[2,3-c]quinolin- 6(7H)-one [Example 12p]"
6,7.55,"(R)-10-((5-chloro-2-((S)-4,4-difluoro-3- (hydroxymethyl)piperidin-1-yl)pyrimidin-4-yl)amino)-2- cyclopropyl-7-methyl-1,2,3,4-tetrahydro- [1,4]oxazepino[2,3-c]quinolin-6(7H)-one or (R)-10-((5-chloro- 2-((R)-4,4-difluoro-3-(hydroxymethyl)piperidin-1-yl)pyrimidin- 4-yl)amino)-2-cyclopropyl-7-methyl-1,2,3,4-tetrahydro- [1,4]oxazepino[2,3-c]quinolin-6(7H)-one [Example 15c]"
7,6.84,"C[C@@H]1CN(c2ncc(Cl)c(Nc3ccc4c(c3)c3c(c(=O)n4C)SCC[C@H](C4CC4)N3)n2)C[C@H](C)C1(F)F [Example 12m, (R)-10-((5-chloro-2-((3S,5R)-4,4-difluoro-3,5-dimethylpiperidin-1-yl)pyrimidin-4-yl)amino)-2-cyclopropyl-7-methyl-1,2,3,4-tetrahydro-[1,4]thiazepino[2,3-c]quinolin-6(7H)-one]"
8,8.47,"C[C@@H]1CN(c2ncc(Cl)c(Nc3ccc4c(c3)c3c(c(=O)n4C)OCC(F)(F)[C@H](C4CC4)N3)n2)CCO1 [Example 12s, (S)-10-((5-chloro-2-((R)-2-methylmorpholino)pyrimidin-4-yl)amino)-2-cyclopropyl-3,3-difluoro-7-methyl-1,2,3,4-tetrahydro-[1,4]oxazepino[2,3-c]quinolin-6(7H)-one]"
9,6.23,"C[C@H]1COC(=O)c2c(c3cc(Nc4nc(N5CCCC5=O)ncc4Cl)ccc3n(C)c2=O)N1 [Example 8i, (S)-10-((5-chloro-2-(2-oxopyrrolidin-1-yl)pyrimidin-4-yl)amino)-2,7-dimethyl-2,3-dihydro-[1,4]oxazepino[6,5-c]quinoline-5,6(1H,7H)-dione]"
10,7.04,"(S)-10-((5-chloro-2-((3R,5S)-3-hydroxy-5- methylpiperidin-1-yl)pyrimidin-4-yl)amino)-2,7-dimethyl-1,2,3,4- tetrahydro-[1,4]oxazepino[2,3-c]quinolin-6(7H)-one or (S)-10-((5- chloro-2-((3S,5R)-3-hydroxy-5-methylpiperidin-1-yl)pyrimidin-4- yl)amino)-2,7-dimethyl-1,2,3,4-tetrahydro- [1,4]oxazepino[2,3-c]quinolin-6(7H)-one [Example 12k]"
11,6.38,"C[C@@H]1CN(c2ncc(Cl)c(Nc3ccc4c(c3)c3c(c(=O)n4C)C(=O)OC[C@H](C4CC4)N3)n2)C[C@H](C)C1(F)F [Example 8k, (S)-10-((5-chloro-2-((3S,5R)-4,4-difluoro-3,5-dimethylpiperidin-1-yl)pyrimidin-4-yl)amino)-2-cyclopropyl-7-methyl-2,3-dihydro-[1,4]oxazepino[6,5-c]quinoline-5,6(1H,7H)-dione]"

# More lines, now with the values behind:
row,Molecule,HTRF avg pIC50 (1 nM)
1,"COCC1(C)CCOc2c(c3cc(Nc4nc(-n5ccc(C(F)(F)F)n5)ncc4Cl)ccc3n(C)c2=O)N1 (stereo not shown) [Example 5b, 10-((5-chloro-2-(3-(trifluoromethyl)-1H-pyrazol-1-yl)pyrimidin-4-yl)amino)-2-(methoxymethyl)-2,7-dimethyl-1,2,3,4-tetrahydro-[1,4]oxazepino[2,3-c]quinolin-6(7H)-one]",6.09
2,"Cn1c(=O)c2c(c3cc(Nc4nc(-n5ccc(C(F)(F)F)n5)ncc4Cl)ccc31)NC1(CCOC1)CCO2 (stereo not shown) [Example 5j, 10′-((5-chloro-2-(3-(trifluoromethyl)-1H-pyrazol-1-yl)pyrimidin-4-yl)amino)-7′-methyl-3′,4,4′,5-tetrahydro-1′H,2H-spiro[furan-3,2′-[1,4]oxazepino[2,3-c]quinolin]-6′(7′H)-one]",5.79
3,"CC1COc2c(c3cc(Nc4ccnc(Cl)c4C#N)ccc3n(C)c2=O)N1 (stereo not shown) [Example 1k, 2-chloro-4-((2,6-dimethyl-5-oxo-2,3,5,6-tetrahydro-1H-[1,4]oxazino[2,3-c]quinolin-9-yl)amino)nicotinonitrile]",5.91
4,"Cn1c(=O)c2c(c3cc(Nc4ccnc(Cl)c4C#N)ccc31)NC1(CCOC1)CCO2 (stereo not shown) [Example 1o, 2-chloro-4-((7′-methyl-6′-oxo-3′,4,4′,5,6′,7′-hexahydro-1′H,2H-spiro[furan-3,2′-[1,4]oxazepino[2,3-c]quinolin]-10′-yl)amino)nicotinonitrile]",6.14
5,"Cn1c(=O)c2c(c3cc(Nc4ccnc(Cl)c4C#N)ccc31)NC(C1CC1)CO2 (stereo not shown) [Example 1m, 2-chloro-4((2-cyclopropyl-6-methyl-5-oxo-2,3,5,6-tetrahydro-1H-[1,4]oxazino[2,3-c]quinolin-9-yl)amino)nicotinonitrile]",6.20
6,"Cn1c(=O)c2c(c3cc(Nc4ccncc4Cl)ccc31)N[C@@H](C1CC1)C(F)(F)CO2 [Example 4d, (S)-10-((3-chloropyridin-4-yl)amino)-2-cyclopropyl-3,3-difluoro-7-methyl-1,2,3,4-tetrahydro-[1,4]oxazepino[2,3-c] quinolin-6(7H)-one]",7.99
7,"Cn1c(=O)c2c(c3cc(Nc4nc(N5C6CCCC5CC6)ncc4Cl)ccc31)N[C@@H](C1CC1)COC2=O [Example 8j, (2S)-10-((2-(8-azabicyclo[3.2.1]octan-8-yl)-5-chloropyrimidin-4-yl)amino)-2-cyclopropyl-7-methyl-2,3-dihydro-[1,4]oxazepino[6,5-c]quinoline-5,6(1H,7H)-dione]",6.65

# Same assay, conditions: HTRF avg pIC50 (1 nM), 1 nM Trx-6×His-BCL6, 300 nM BCOR-AF633 peptide, 2 hours incubation
row,Molecule,pIC50
1,"Cn1c(=O)c2c(c3cc(Nc4cc(C(=O)O)nc(Cl)c4C#N)ccc31)N[C@@H](C1CC1)CCO2 [Example 2b, (R)-6-chloro-5-cyano-4-((2-cyclopropyl-7-methyl-6-oxo-1,2,3,4,6,7-hexahydro-[1,4]oxazepino[2,3-c]quinolin-10-yl)amino)picolinic acid]",8.05
2,"CC1Nc2c(c(=O)n(C)c3ccc(Nc4nc(N5C[C@H](C)C[C@H](C)C5)ncc4Cl)cc23)C(=O)OC1C (mixture of isomers) [Example 8q, rac-(2S,3R)-10-((5-chloro-2-((3S,5R)-3,5-dimethylpiperidin-1-yl)pyrimidin-4-yl)amino)-2,3,7-trimethyl-2,3-dihydro-[1,4]oxazepino[6,5-c]quinoline-5,6(1H,7H)-dione or rac-(2S,3S)-10-((5-chloro-2-((3S,5R)-3,5-dimethylpiperidin-1-yl)pyrimidin-4-yl)amino)-2,3,7-trimethyl-2,3-dihydro-[1,4]oxazepino[6,5-c]quinoline-5,6(1H,7H)-dione]",6.32
3,"CC1Nc2c(c(=O)n(C)c3ccc(Nc4ccnc(Cl)c4C#N)cc23)C(=O)OC1C (stereo not shown) [Example 6d, 2-chloro-4-((2,3,7-trimethyl-5,6-dioxo-1,2,3,5,6,7-hexahydro-[1,4]oxazepino[6,5-c]quinolin-10-yl)amino)nicotinonitrile]",6.67

# Same assay, conditions: read-out: IC50 in the HTRF assay
row,Molecule,pIC50
1,"CC1CC(C)(C)Oc2c(c3cc(Nc4ccnc(Cl)c4C#N)ccc3n(C)c2=O)N1 (stereo not shown) [2-chloro-4-((2,4,4,7-tetramethyl-6-oxo-1,2,3,4,6,7-hexahydro-[1,4]oxazepino[2,3-c]quinolin-10-yl)amino)nicotinonitrile]",< 5.60
